Experimental data as given in patent US20250101034A1, “COMPOSITIONS USEFUL FOR MODULATING SPLICING” (SKYHAWK THERAPEUTICS, INC., priority 2021, published 2025).

Key:
total ATXN3 protein = assay: ATXN3 total protein assay (MSD, SK-N-MC cells); type: cell-based, Human; settings: 48 hours incubation, read-out: ATXN3 Potency - Protein IC50
Procedure: Human neuroblastoma SK-N-MC cells were seeded at 10,000 cells/well in 384 well plates one day prior to compound treatment. The concentrations of compounds were tested at appropriate doses ranging from 30 μM to 0.6 nM. After incubation for 48 hours, the cells were lysed with 25 μL of lysis buffer containing protease inhibitors, and total ATXN3 protein levels were assessed by Mesoscale Discovery (MSD) assay developed with one pair of anti-ATXN3 antibodies. The capture and detect antibodies were raised in mouse and rabbit respectively. Anti-rabbit MSD-ST antibody was used for secondary antibody.
ATXN3 recombinant protein was used for standards. The readouts were captured with 35 μL of MSD read buffer and multi-array 384-well high binding plates.

[1] = tested on: ATXN3 transcripts containing exon 4 (E4E5); assay: ATXN3 quantitative splicing assay (qPCR, SK-N-MC cells); type: cell-based; settings: Homo sapiens, 24 h treatment, qPCR E4E5 primers/probe, read-out: ATXN3 Potency - Splicing E4E5 IC50
Procedure: Human neuroblastoma SK-N-MC cells were plated in 384-well plates at 20,000 cells/well. Twenty-four hours after plating, cells were treated with compounds for 24 h at appropriate concentrations ranging from 30 μM to 0.6 nM (0.3% DMSO). Treated cells were lysed in 15 μL of lysis buffer, and cDNA was synthesized using the Fast Advanced Cells-to-Ct kit. Two μL of each cDNA was used in qPCR reactions to confirm the exon 4 skipped transcripts of ATXN3. A second set of primers/probe E4E5 was used to detect the transcripts containing exon 4. The third set of primers/probe E8E9 was used to detect total gene level of ATXN3. The qPCR reactions were prepared in 384-well plates in 10 μL volume, using TaqMan™ Fast Advanced Master Mix with primers and probes shown in the table below. Reactions were run in a Quant Studio 6 qPCR instrument with default settings.
The primers and probes are listed below in Table 4.

C[C@H](F)[C@H](N)Cc1sc2c(NCc3cccs3)cnnc2c1Br [Compound 135, 6-[(2R,3S)-2-amino-3-fluorobutyl]-7-bromo-N-[(thiophen-2-yl)methyl]thieno[3,2-c]pyridazin-4-amine]
IC50 (total ATXN3 protein): 0.101 to 0.5 µM | IC50 [1]: 0.101 to 0.5 µM

N[C@@H](CO)Cc1cc2nncc(NCc3cccs3)c2s1 [Compound 53, (2R)-2-amino-3-(4-{[(thiophen-2-yl)methyl]amino}thieno[3,2-c]pyridazin-6-yl)propan-1-ol]
IC50 (total ATXN3 protein): 0.501 to 5 µM | IC50 [1]: 0.501 to 5 µM

C#CC[C@H](N)Cc1sc2c(NCc3cccs3)cnnc2c1C [Compound 142, 6-[(2S)-2-aminopent-4-yn-1-yl]-7-methyl-N-(thiophen-2-ylmethyl)thieno[3,2-c]pyridazin-4-amine]
IC50 (total ATXN3 protein): 0.501 to 5 µM | IC50 [1]: 0.501 to 5 µM

Cc1c(C[C@H](C)N)sc2c(NCc3ccc(F)s3)cnnc12 [Compound 16, 6-[(2S)-2-aminopropyl]-N-[(5-fluorothiophen-2-yl)methyl]-7-methylthieno[3,2-c]pyridazin-4-amine]
IC50 (total ATXN3 protein): 0.501 to 5 µM | IC50 [1]: 0.501 to 5 µM

Cc1c([C@H](C)[C@@H](C)N)sc2c(NCc3cccs3)cnnc12 [Compound 99, 6-[(2R,3R)-3-aminobutan-2-yl]-7-methyl-N-[(thiophen-2-yl)methyl]thieno[3,2-c]pyridazin-4-amine]
IC50 (total ATXN3 protein): 10 to 40 µM | IC50 [1]: 10 to 40 µM

N[C@@H](CO)Cc1sc2c(NCc3ccco3)cnnc2c1Cl [Compound 96, (2R)-2-amino-3-(7-chloro-4-{[(furan-2-yl)methyl]amino}thieno[3,2-c]pyridazin-6-yl)propan-1-ol]
IC50 (total ATXN3 protein): 0.101 to 0.5 µM | IC50 [1]: 0.101 to 0.5 µM

Cc1c(C[C@@H](N)CC(F)F)sc2c(NCc3cccs3)cnnc12 [Compound 28, 6-[(2S)-2-amino-4,4-difluorobutyl]-7-methyl-N-[(thiophen-2-yl)methyl]thieno[3,2-c]pyridazin-4-amine]
IC50 (total ATXN3 protein): 10 to 40 µM | IC50 [1]: 10 to 40 µM

Cc1c([C@H](O)[C@H](C)N)sc2c(NCc3cccs3)cnnc12 (single isomer, unassigned) [Compound 41]
IC50 (total ATXN3 protein): 10 to 40 µM | IC50 [1]: 10 to 40 µM

Cc1c(C[C@H](C)N)sc2c(NCc3cccs3)c(F)nnc12 [Compound 97, 6-[(2S)-2-aminopropyl]-3-fluoro-7-methyl-N-[(thiophen-2-yl)methyl]thieno[3,2-c]pyridazin-4-amine]
IC50 (total ATXN3 protein): 0.101 to 0.5 µM | IC50 [1]: 0.101 to 0.5 µM

COc1ccsc1CNc1cnnc2c(C)c(C[C@H](C)N)sc12 [Compound 74, 6-[(2S)-2-aminopropyl]-N-[(3-methoxythiophen-2-yl)methyl]-7-methylthieno[3,2-c]pyridazin-4-amine]
IC50 (total ATXN3 protein): 10 to 40 µM | IC50 [1]: 10 to 40 µM

Cc1c(C[C@H](C)N)sc2c(NCc3cc(F)cs3)cnnc12 [Compound 45, 6-[(2S)-2-aminopropyl]-N-[(4-fluorothiophen-2-yl)methyl]-7-methylthieno[3,2-c]pyridazin-4-amine]
IC50 (total ATXN3 protein): 0.501 to 5 µM | IC50 [1]: 0.501 to 5 µM

C[C@H](N)Cc1sc2c(NCc3ccco3)cnnc2c1Br [Compound 100, 6-[(2S)-2-aminopropyl]-7-bromo-N-[(furan-2-y1)methyl]thieno[3,2-c]pyridazin-4-amine]
IC50 (total ATXN3 protein): 0.101 to 0.5 µM | IC50 [1]: 0.101 to 0.5 µM

Cc1c(C[C@@H](N)CCO)sc2c(NCc3ccco3)cnnc12 [Compound 29, (3S)-3-amino-4-(4-{[(furan-2-yl)methyl]amino}-7-methylthieno[3,2-c]pyridazin-6-yl)butan-1-ol]
IC50 (total ATXN3 protein): 0.501 to 5 µM | IC50 [1]: 0.501 to 5 µM

CCc1c(C[C@H](C)N)sc2c(NCc3cccs3)cnnc12 [Compound 23, 6-[(2S)-2-aminopropyl]-7-ethyl-N-[(thiophen-2-yl)methyl]thieno[3,2-c]pyridazin-4-amine]
IC50 (total ATXN3 protein): 5 to 10 µM | IC50 [1]: 5 to 10 µM

Cc1c(C[C@@H](N)C[C@H]2CC2(F)F)sc2c(NCc3cccs3)cnnc12 [Compound 127, 6-[(2S)-2-amino-3-[(1S)-2,2-difluorocyclopropyl]propyl]-7-methyl-N-(thiophen-2-ylmethyl)thieno[3,2-c]pyridazin-4-amine]
IC50 (total ATXN3 protein): 10 to 40 µM | IC50 [1]: 10 to 40 µM

C[C@H](N)Cc1sc2c(NCc3ccco3)cnnc2c1Cl [Compound 101, 6-[(2S)-2-aminopropyl]-7-chloro-N-[(furan-2-yl)methyl]thieno[3,2-c]pyridazin-4-amine]
IC50 (total ATXN3 protein): 0.101 to 0.5 µM | IC50 [1]: 0.101 to 0.5 µM

Cc1c(C[C@@H](N)CS(C)(=O)=O)sc2c(NCc3ccco3)cnnc12 [Compound 32, 6-[(2R)-2-amino-3-methanesulfonylpropyl]-N-[(furan-2-yl)methyl]-7-methylthieno[3,2-c]pyridazin-4-amine]
IC50 (total ATXN3 protein): 10 to 40 µM | IC50 [1]: 10 to 40 µM

C[C@H](N)Cc1sc2c(NCc3cccs3)cnnc2c1O [Compound 90, 6-[(2S)-2-aminopropyl]-4-[(thiophen-2-ylmethyl)amino]thieno[3,2-c]pyridazin-7-ol]
IC50 (total ATXN3 protein): 10 to 40 µM | IC50 [1]: 10 to 40 µM

CSC[C@H](N)Cc1sc2c(NCc3ccco3)cnnc2c1C [Compound 30, 6-[(2R)-2-amino-3-(methylsulfanyl)propyl]-N-[(furan-2-yl)methyl]-7-methylthieno[3,2-c]pyridazin-4-amine]
IC50 (total ATXN3 protein): 0.501 to 5 µM | IC50 [1]: 0.501 to 5 µM

C#Cc1c(C[C@H](C)N)sc2c(NCc3ccco3)cnnc12 [Compound 115, 6-[(2S)-2-aminopropyl]-7-ethynyl-N-[(furan-2-y1)methyl]thieno[3,2-c]pyridazin-4-amine]
IC50 (total ATXN3 protein): 0.101 to 0.5 µM | IC50 [1]: 1e-05 to 0.1 µM

Cc1c(C[C@@H](N)COC(F)(F)F)sc2c(NCc3cccs3)cnnc12 [Compound 132, 6-[(2R)-2-amino-3-(trifluoromethoxy)propyl]-7-methyl-N-[(thiophen-2-yl)methyl]thieno[3,2-c]pyridazin-4-amine]
IC50 (total ATXN3 protein): 10 to 40 µM | IC50 [1]: 10 to 40 µM

Cc1c(C[C@@H](N)C[S+](C)[O-])sc2c(NCc3ccco3)cnnc12 (stereo partly drawn) [Compound 33, 6-[(2R)-2-amino-3-methanesulfinylpropyl]-N-[(furan-2-yl)methyl]-7-methylthieno[3,2-c]pyridazin-4-amine]
IC50 (total ATXN3 protein): 10 to 40 µM | IC50 [1]: 10 to 40 µM

N[C@@H](COC1CC1)Cc1sc2c(NCc3cccs3)cnnc2c1Br [Compound 137, 6-[(2R)-2-amino-3-cyclopropoxypropyl]-7-bromo-N-[(thiophen-2-yl)methyl]thieno[3,2-c]pyridazin-4-amine]
IC50 (total ATXN3 protein): 0.501 to 5 µM | IC50 [1]: 0.501 to 5 µM

Cc1c(C[C@@H](N)CC2CC2)sc2c(NCc3cccs3)cnnc12 [Compound 68, 6-[(2S)-2-amino-3-cyclopropylpropyl]-7-methyl-N-[(thiophen-2-yl)methyl]thieno[3,2-c]pyridazin-4-amine]
IC50 (total ATXN3 protein): 0.501 to 5 µM | IC50 [1]: 0.501 to 5 µM

CSC[C@H](N)Cc1sc2c(NCc3cccs3)cnnc2c1C [Compound 58, 6-[(2R)-2-amino-3-(methylsulfanyl)propyl]-7-methyl-N-(thiophen-2-ylmethyl)thieno[3,2-c]pyridazin-4-amine]
IC50 (total ATXN3 protein): 0.501 to 5 µM | IC50 [1]: 0.501 to 5 µM

Cc1c(CC(N)=O)sc2c(NCc3cccs3)cnnc12 [Compound 105, 2-(7-methyl-4-{[(thiophen-2-yl)methyl]amino}thieno[3,2-c]pyridazin-6-yl)acetamide]
IC50 (total ATXN3 protein): 10 to 40 µM | IC50 [1]: 10 to 40 µM

Cc1csc2c(NCc3nccs3)cnnc12 [Compound 12, 7-methyl-N-[(1,3-thiazol-2-yl)methyl]thieno[3,2-c]pyridazin-4-amine]
IC50 (total ATXN3 protein): 10 to 40 µM | IC50 [1]: 10 to 40 µM
